Test results from PubChem BioAssay AID248 (DTP/NCI, 2004).
Where “and” joins values, the source holds several entries; their conditions need not be identical. Equal values may be shown once. Inconclusive results and toxic doses are left out.

Test system: L1210 leukemia ip in BDF1 mice, survival T/C
Assay: NCI In Vivo Anticancer Drug Screen. Data for tumor model L1210 Leukemia (intraperitoneal) in B6D2F1 (BDF1) mice
Settings: endpoint: mean survival time, higher = longer survival
Procedure, shortened: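 In this screen, tumor-bearing mice given compound are compared to those given vehicle, and their survival values are reported as a treated-to-control quotient.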

[1] = dose: 50.0 mg/kg/injection, schedule: Q01DX001 (ip), vehicle: saline
[2] = dose: 6.25 mg/kg/injection, schedule: Q04DX003 (ip), vehicle: saline with Tween-80
[3] = dose: 25.0 mg/kg/injection, schedule: Q04DX003 (ip), vehicle: saline with Tween-80
[4] = dose: 100.0 mg/kg/injection, schedule: Q01DX001 (ip), vehicle: carboxymethylcellulose (CMC)
[5] = dose: 200.0 mg/kg/injection, schedule: Q01DX001 (ip), vehicle: carboxymethylcellulose (CMC)
[6] = dose: 100.0 mg/kg/injection, schedule: Q04DX003 (ip), vehicle: saline with Tween-80
[7] = dose: 200.0 mg/kg/injection, schedule: Q04DX003 (ip), vehicle: saline with Tween-80
[8] = dose: 400.0 mg/kg/injection, schedule: Q04DX003 (ip), vehicle: saline with Tween-80

## CC[N+](C)(CC)CCCN(C)C(=O)C(c1ccccc1)c1ccccc1
dose: 12.5 mg/kg/injection, schedule: Q01DX001 (ip), vehicle: saline
  T/C: 92 % of control
dose: 12.5 mg/kg/injection, schedule: Q04DX003 (ip), vehicle: saline
  T/C: 98 % of control
dose: 25.0 mg/kg/injection, schedule: Q01DX001 (ip), vehicle: saline
  T/C: 103 % of control
dose: 25.0 mg/kg/injection, schedule: Q04DX003 (ip), vehicle: saline
  T/C: 93 % of control
[1]
  T/C: 92 % of control
dose: 50.0 mg/kg/injection, schedule: Q04DX003 (ip), vehicle: saline
  T/C: 93 % of control
dose: 75.0 mg/kg/injection, schedule: Q04DX003 (ip), vehicle: saline
  T/C: 97 % of control

## COc1ccc(/C=N/N=c2\[nH][nH]/c(=N\N=C\c3ccc(OC)c4ccccc34)c3ccccc23)c2ccccc12
[1]
  T/C: 100 % of control
dose: 100.0 mg/kg/injection, schedule: Q01DX001 (ip), vehicle: saline
  T/C: 100 % of control
dose: 200.0 mg/kg/injection, schedule: Q01DX001 (ip), vehicle: saline
  T/C: 103 % of control
dose: 400.0 mg/kg/injection, schedule: Q01DX001 (ip), vehicle: saline
  T/C: 105 % of control

## CS(=O)(=O)OCCN(CCOS(C)(=O)=O)c1ccc(C=Nc2ccc(C(=O)O)c(O)c2)cc1
[2]
  T/C: 117 % of control
dose: 12.0 mg/kg/injection, schedule: Q01DX009 (ip), vehicle: saline with Tween-80
  T/C: 168 % of control
dose: 16.5 mg/kg/injection, schedule: Q04DX003 (ip), vehicle: saline with Tween-80
  T/C: 112 % of control
dose: 18.0 mg/kg/injection, schedule: Q01DX009 (ip), vehicle: saline with Tween-80
  T/C: 170 % of control
[3]
  T/C: 121 % of control
dose: 37.5 mg/kg/injection, schedule: Q04DX003 (ip), vehicle: saline with Tween-80
  T/C: 113 % of control

## CCCCN(C)/N=N/c1nc[nH]c1C(=O)NN
dose: 50.0 mg/kg/injection, schedule: Q01DX001 (ip), vehicle: carboxymethylcellulose (CMC)
  T/C: 104 % of control
[4]
  T/C: 104 % of control
[5]
  T/C: 101 % of control
dose: 400.0 mg/kg/injection, schedule: Q01DX001 (ip), vehicle: carboxymethylcellulose (CMC)
  T/C: 119 % of control

## CC1(C(N)=O)OC12CCCCC2CCC(=O)O (stereo unspecified)
dose: 100.0 mg/kg/injection, schedule: Q04DX003 (ip), vehicle: Klucel (hydroxypropylcellulose) (HPC)
  T/C: 102 % of control
dose: 200.0 mg/kg/injection, schedule: Q04DX003 (ip), vehicle: Klucel (hydroxypropylcellulose) (HPC)
  T/C: 93 % of control
dose: 400.0 mg/kg/injection, schedule: Q04DX003 (ip), vehicle: Klucel (hydroxypropylcellulose) (HPC)
  T/C: 93 % of control

## c1ccn2nncc2c1
[4]
  T/C: 103 % of control
[5]
  T/C: 90 % of control

## CC=C=[CH][Sn]([CH2]CC)([CH2]CC)[CH2]CC
dose: 75.0 mg/kg/injection, schedule: Q01DX001 (ip), vehicle: saline
  T/C: 91 % of control

## CC1CN1C1=C(Br)C(=O)C(N2CC2C)=C(Br)C1=O (stereo unspecified)
dose: 1.56 mg/kg/injection, schedule: Q01DX009 (ip), vehicle: Klucel (hydroxypropylcellulose) (HPC)
  T/C: 95 % of control
dose: 1.56 mg/kg/injection, schedule: Q04DX003 (ip), vehicle: saline with Tween-80
  T/C: 98 % of control
dose: 3.12 mg/kg/injection, schedule: Q01DX009 (ip), vehicle: Klucel (hydroxypropylcellulose) (HPC)
  T/C: 98 % of control
dose: 3.12 mg/kg/injection, schedule: Q04DX003 (ip), vehicle: saline with Tween-80
  T/C: 104 % of control
dose: 6.25 mg/kg/injection, schedule: Q01DX009 (ip), vehicle: Klucel (hydroxypropylcellulose) (HPC)
  T/C: 95 % of control
[2]
  T/C: 98 % of control
dose: 12.5 mg/kg/injection, schedule: Q01DX009 (ip), vehicle: Klucel (hydroxypropylcellulose) (HPC)
  T/C: 90 % of control
dose: 12.5 mg/kg/injection, schedule: Q04DX003 (ip), vehicle: saline with Tween-80
  T/C: 95 % of control
[3]
  T/C: 98 % of control

## CCNC(=O)Oc1cccc(NC(=O)OC)c1
[6]
  T/C: 104 % of control
[7]
  T/C: 93 % of control
[8]
  T/C: 95 % of control

## CC(C)C(NC(=O)CCNC(=O)OCc1ccccc1)C(=O)O (stereo unspecified)
[6]
  T/C: 97 % of control
[7]
  T/C: 97 % of control
[8]
  T/C: 97 % of control

## CC(CCC/C=C/CCCN(C)C(=N)N)CC(C)C1OC(=O)C(C)C(O)/C=C/C(C)C(O)C(C)C(O)C(C)C(O)CCCC(O)CC2(O)OC(CC(OC(=O)CC(=O)O)CC(O)CC(O)C(C)C(O)/C=C/C=C/C1C)CC(O)C2O (stereo unspecified)
dose: 0.48 mg/kg/injection, schedule: Q01DX009 (ip), vehicle: saline
  T/C: 90 % of control
dose: 0.73 mg/kg/injection, schedule: Q01DX009 (ip), vehicle: saline
  T/C: 92 % of control
dose: 0.96 mg/kg/injection, schedule: Q04DX003 (ip), vehicle: saline
  T/C: 106 % of control
dose: 1.09 mg/kg/injection, schedule: Q01DX009 (ip), vehicle: saline
  T/C: 92 % of control
dose: 1.46 mg/kg/injection, schedule: Q04DX003 (ip), vehicle: saline
  T/C: 104 % of control
dose: 2.18 mg/kg/injection, schedule: Q04DX003 (ip), vehicle: saline
  T/C: 120 % of control
dose: 3.2 mg/kg/injection, schedule: Q04DX003 (ip), vehicle: saline
  T/C: 97 % of control
dose: 4.9 mg/kg/injection, schedule: Q04DX003 (ip), vehicle: saline
  T/C: 103 % of control and 86 % of control
dose: 7.3 mg/kg/injection, schedule: Q04DX003 (ip), vehicle: saline
  T/C: 92 % of control
dose: 23.0 micrograms/kg/injection, schedule: Q01DX001 (ip), vehicle: saline
  T/C: 98 % of control
dose: 23.0 micrograms/kg/injection, schedule: Q01DX009 (ip), vehicle: saline
  T/C: 100 % of control
dose: 23.0 micrograms/kg/injection, schedule: Q04DX003 (ip), vehicle: saline
  T/C: 105 % of control
dose: 47.0 micrograms/kg/injection, schedule: Q01DX001 (ip), vehicle: saline
  T/C: 104 % of control
dose: 47.0 micrograms/kg/injection, schedule: Q01DX009 (ip), vehicle: saline
  T/C: 108 % of control
dose: 47.0 micrograms/kg/injection, schedule: Q04DX003 (ip), vehicle: saline
  T/C: 106 % of control
dose: 95.0 micrograms/kg/injection, schedule: Q01DX001 (ip), vehicle: saline
  T/C: 97 % of control
dose: 95.0 micrograms/kg/injection, schedule: Q01DX009 (ip), vehicle: saline
  T/C: 94 % of control
dose: 95.0 micrograms/kg/injection, schedule: Q04DX003 (ip), vehicle: saline
  T/C: 101 % of control
dose: 141.0 micrograms/kg/injection, schedule: Q01DX009 (ip), vehicle: saline
  T/C: 106 % of control
dose: 141.0 micrograms/kg/injection, schedule: Q04DX003 (ip), vehicle: saline
  T/C: 97 % of control
dose: 215.0 micrograms/kg/injection, schedule: Q01DX009 (ip), vehicle: saline
  T/C: 105 % of control
dose: 215.0 micrograms/kg/injection, schedule: Q04DX003 (ip), vehicle: saline
  T/C: 100 % of control
dose: 322.0 micrograms/kg/injection, schedule: Q01DX009 (ip), vehicle: saline
  T/C: 103 % of control
dose: 322.0 micrograms/kg/injection, schedule: Q04DX003 (ip), vehicle: saline
  T/C: 103 % of control

## O=c1c2cnc3c4cccnc4ccc3c2[nH]n1-c1ccccc1
dose: 100.0 mg/kg/injection, schedule: Q04DX002 (ip), vehicle: Klucel (hydroxypropylcellulose) (HPC)
  T/C: 105 % of control
dose: 200.0 mg/kg/injection, schedule: Q04DX002 (ip), vehicle: Klucel (hydroxypropylcellulose) (HPC)
  T/C: 109 % of control
dose: 400.0 mg/kg/injection, schedule: Q04DX002 (ip), vehicle: Klucel (hydroxypropylcellulose) (HPC)
  T/C: 98 % of control

## CSc1ccc(NC(=O)Oc2ccc(C(=O)OCc3ccccc3)cc2)cc1
dose: 100.0 mg/kg/injection, schedule: Q01DX001 (ip), vehicle: saline with Tween-80
  T/C: 100 % of control and 88 % of control
dose: 100.0 mg/kg/injection, schedule: Q01DX009 (ip), vehicle: saline with Tween-80
  T/C: 99 % of control and 87 % of control
dose: 100.0 mg/kg/injection, schedule: Q04DX002 (ip), vehicle: saline with Tween-80
  T/C: 97 % of control and 101 % of control
[6]
  T/C: 102 % of control
dose: 200.0 mg/kg/injection, schedule: Q01DX001 (ip), vehicle: saline with Tween-80
  T/C: 97 % of control
dose: 200.0 mg/kg/injection, schedule: Q01DX009 (ip), vehicle: saline with Tween-80
  T/C: 108 % of control and 89 % of control
dose: 200.0 mg/kg/injection, schedule: Q04DX002 (ip), vehicle: saline with Tween-80
  T/C: 97 % of control and 87 % of control
[7]
  T/C: 103 % of control
dose: 400.0 mg/kg/injection, schedule: Q01DX001 (ip), vehicle: saline with Tween-80
  T/C: 100 % of control
dose: 400.0 mg/kg/injection, schedule: Q01DX009 (ip), vehicle: saline with Tween-80
  T/C: 99 % of control and 92 % of control
dose: 400.0 mg/kg/injection, schedule: Q04DX002 (ip), vehicle: saline with Tween-80
  T/C: 95 % of control and 97 % of control
[8]
  T/C: 103 % of control
